Columns and labels:
[1] = water solubility at 25° C.; assay type: physicochemical; settings: aqueous
[2] = storage stability at 40° C. and 75% relative humidity; assay type: physicochemical; settings: stored at 40° C. and 75% relative humidity for up to four weeks
Procedure: Instead, the melting of Form I is observed to recrystallize to another, metastable form having a melting point of about 172.5° C.

| solubility [1] | Compound | stability of form, morphology and purity on storage [2] |
| --- | --- | --- |
| 2900 µg/mL | CC(C)C[C@](C)(N)COc1ccc(-c2ccnc(C(F)F)c2)nc1C(F)F.Cl [Compound S, (S)-1-((2′,6-bis(difluoromethyl)-[2,4′-bipyridin]-5-yl)oxy)-2,4-dimethylpentan-2-amine hydrochloride] | – |
| – | CC(C)C[C@](C)(N)COc1ccc(-c2ccnc(C(F)F)c2)nc1C(F)F [Compound K, ((S)-1-((2′,6-bis(difluoromethyl)-[2,4′-bipyridin]-5-yl)oxy)-2,4-dimethylpentan-2-aminiumdihydrogen phosphate] | neither the form itself, its morphology, nor its purity changed |
